This test addresses T1, α1G T-type Ca2+ channels (Homo sapiens, UniProt O43497).
T1 construct: expressed in transfected cells; host or cells: HEK293 cells stably expressing α1G and Kir2.1
In words: Screening of activity against T-type calcium channel with FDSS6000 (fluorescence, KCl-induced [Ca2+]i increase). In kind it is cell-based. The following applies: HEK293 cells expressing α1G and Kir2.1, read-out: Inhibitory effect (%) of T-type calcium channel, Inhibition (%); for inhibition at 10 µM: NA: Not Active. In short, it runs like this: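 HEK293 cells stably expressing α1G plus Kir2.1 were loaded with 5 μM fluo3/AM for 60 min at room temperature in HEPES buffer pH 7.4. In buffer with 10 mM CaCl2, cells were pretreated with compound, then depolarized with 70 mM KCl. The rise in [Ca2+]i was measured by fluorescence […].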

Structures are written as SMILES.

T1 sequence (O43497 whole entry): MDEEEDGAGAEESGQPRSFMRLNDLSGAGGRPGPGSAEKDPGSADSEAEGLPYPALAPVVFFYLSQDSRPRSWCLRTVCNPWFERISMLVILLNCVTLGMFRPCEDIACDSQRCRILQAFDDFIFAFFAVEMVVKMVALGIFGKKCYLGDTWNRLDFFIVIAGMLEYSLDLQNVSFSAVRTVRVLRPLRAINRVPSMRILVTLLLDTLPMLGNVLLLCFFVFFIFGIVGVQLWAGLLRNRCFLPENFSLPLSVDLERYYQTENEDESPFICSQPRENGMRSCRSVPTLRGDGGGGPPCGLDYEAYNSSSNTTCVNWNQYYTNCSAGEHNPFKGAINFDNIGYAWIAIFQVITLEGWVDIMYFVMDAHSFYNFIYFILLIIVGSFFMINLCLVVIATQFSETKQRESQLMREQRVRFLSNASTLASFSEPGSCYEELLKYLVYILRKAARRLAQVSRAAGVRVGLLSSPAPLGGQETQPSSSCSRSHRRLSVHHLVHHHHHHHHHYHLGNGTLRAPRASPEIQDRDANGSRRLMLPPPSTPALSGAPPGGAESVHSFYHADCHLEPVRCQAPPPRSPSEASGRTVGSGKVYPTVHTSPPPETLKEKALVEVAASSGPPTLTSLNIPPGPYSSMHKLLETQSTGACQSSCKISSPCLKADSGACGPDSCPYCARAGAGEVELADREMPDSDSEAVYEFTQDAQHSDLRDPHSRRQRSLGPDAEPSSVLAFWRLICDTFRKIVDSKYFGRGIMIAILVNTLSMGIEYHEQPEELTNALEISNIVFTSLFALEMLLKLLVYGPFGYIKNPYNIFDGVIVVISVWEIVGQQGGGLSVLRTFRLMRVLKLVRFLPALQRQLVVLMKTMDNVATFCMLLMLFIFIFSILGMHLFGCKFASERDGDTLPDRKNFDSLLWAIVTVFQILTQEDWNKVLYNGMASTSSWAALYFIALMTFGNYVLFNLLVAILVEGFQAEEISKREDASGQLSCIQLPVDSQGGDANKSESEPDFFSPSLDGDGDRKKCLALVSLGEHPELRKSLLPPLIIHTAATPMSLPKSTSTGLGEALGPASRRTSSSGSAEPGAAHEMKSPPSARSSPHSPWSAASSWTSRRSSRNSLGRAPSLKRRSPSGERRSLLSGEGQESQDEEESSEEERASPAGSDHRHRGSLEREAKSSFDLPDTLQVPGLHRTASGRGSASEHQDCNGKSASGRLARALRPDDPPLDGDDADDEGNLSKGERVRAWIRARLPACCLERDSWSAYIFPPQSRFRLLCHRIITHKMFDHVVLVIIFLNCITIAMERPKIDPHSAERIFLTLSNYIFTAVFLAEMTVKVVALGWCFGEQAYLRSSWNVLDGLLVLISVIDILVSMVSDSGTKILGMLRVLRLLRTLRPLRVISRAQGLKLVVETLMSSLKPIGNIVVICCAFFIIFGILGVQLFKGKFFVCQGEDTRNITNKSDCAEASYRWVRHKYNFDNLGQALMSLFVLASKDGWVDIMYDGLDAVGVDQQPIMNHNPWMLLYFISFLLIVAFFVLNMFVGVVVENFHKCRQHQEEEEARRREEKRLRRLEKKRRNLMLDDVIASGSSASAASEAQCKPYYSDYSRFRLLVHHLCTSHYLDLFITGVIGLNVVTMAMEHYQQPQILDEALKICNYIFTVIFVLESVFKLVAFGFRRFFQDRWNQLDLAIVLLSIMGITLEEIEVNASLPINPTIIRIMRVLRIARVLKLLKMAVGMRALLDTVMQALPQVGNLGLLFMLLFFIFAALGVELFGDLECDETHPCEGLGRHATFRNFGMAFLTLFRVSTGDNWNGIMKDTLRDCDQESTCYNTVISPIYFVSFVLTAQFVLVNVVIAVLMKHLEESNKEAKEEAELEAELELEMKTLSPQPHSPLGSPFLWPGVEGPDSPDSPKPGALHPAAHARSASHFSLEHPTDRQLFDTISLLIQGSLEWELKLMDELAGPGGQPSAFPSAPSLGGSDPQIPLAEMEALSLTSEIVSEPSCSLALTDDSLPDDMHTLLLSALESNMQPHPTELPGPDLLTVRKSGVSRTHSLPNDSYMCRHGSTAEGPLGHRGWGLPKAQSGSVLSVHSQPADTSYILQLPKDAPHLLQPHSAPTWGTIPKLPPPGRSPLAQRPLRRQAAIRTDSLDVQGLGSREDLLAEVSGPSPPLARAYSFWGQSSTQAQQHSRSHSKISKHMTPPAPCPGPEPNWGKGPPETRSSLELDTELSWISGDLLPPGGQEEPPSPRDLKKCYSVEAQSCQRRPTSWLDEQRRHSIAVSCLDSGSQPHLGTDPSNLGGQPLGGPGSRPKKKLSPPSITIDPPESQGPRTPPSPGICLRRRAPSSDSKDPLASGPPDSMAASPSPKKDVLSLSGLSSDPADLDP

As to `COc1ccc(CN2C(=O)c3ccc(C(=O)NCCN4CCOCC4)cc3C2=O)cc1` [Compound 127, 4-(2-{[2-(4-methoxy-benzyl)-1,3-dioxo-2,3-dihydro-1H-isoindol-5-carbonyl]-amino}-ethyl)-4-morpholinium chloride], the inhibition (in general, how much of the control response was suppressed) at 100 µM was found to be 51.7%.
Turning to `O=C(NCCN1CCOCC1)c1ccc2c(c1)C(=O)N(Cc1ccccc1Cl)C2=O` [Compound 79, 4-(2-{[2-(2-chloro-benzyl)-1,3-dioxo-2,3-dihydro-1H-isoindol-5-carbonyl]-amino}-ethyl)-4-morpholinium chloride], the inhibition at 10 µM turned out to be 15.6%.
`CC1CCCCN1CCCNC(=O)c1ccc2c(c1)C(=O)N(Cc1ccccc1)C2=O` (centres unmarked) [Compound 50, 1-{3-[(2-benzyl-1,3-dioxo-2,3-dihydro-1H-isoindol-5-carbonyl)-amino]-propyl}-2-methyl-piperidinium chloride]: the inhibition at 100 µM was determined as 69.6%.
For the molecule `O=C(NCCN1CCOCC1)c1ccc2c(c1)C(=O)N(Cc1cccc(F)c1)C2=O` [Compound 65, 4-(2-{[2-(3-fluoro-benzyl)-1,3-dioxo-2,3-dihydro-1H-isoindol-5-carbonyl]-amino}-ethyl)-4-morpholinium chloride], the inhibition at 100 µM was found to be 59.8%.
For `CC1CCCCN1CCCNC(=O)c1ccc2c(c1)C(=O)N(Cc1cccc(F)c1)C2=O` (centres unmarked) [Compound 62, 1-(3-{[2-(3-fluoro-benzyl)-1,3-dioxo-2,3-dihydro-1H-isoindol-5-carbonyl]-amino}-propyl)-2-methyl-piperidinium chloride], the inhibition at 100 µM is 83.5%.
Take `O=C(NCCN1CCCCC1)c1ccc2c(c1)C(=O)N(Cc1ccccc1F)C2=O` [Compound 55, 1-(2-{[2-(2-fluoro-benzyl)-1,3-dioxo-2,3-dihydro-1H-isoindol-5-carbonyl]-amino}-ethyl)-piperidinium chloride]: the inhibition at 100 µM is 79.9%.
Take `O=C(NCCN1CCOCC1)c1ccc2c(c1)C(=O)N(Cc1ccc(Cl)cc1)C2=O` [Compound 91, 4-(2-{[2-(4-chloro-benzyl)-1,3-dioxo-2,3-dihydro-1H-isoindol-5-carbonyl]-amino}-ethyl)-4-morpholinium chloride]: the inhibition at 10 µM is 26.1%.
Take `COc1ccccc1CN1C(=O)c2ccc(C(=O)NCCCN3CCCCC3C)cc2C1=O` (centres unmarked) [Compound 112, 1-(3-{[2-(2-methoxy-benzyl)-1,3-dioxo-2,3-dihydro-1H-isoindol-5-carbonyl]-amino}-propyl)-2-methyl-piperidinium chloride]: the inhibition at 100 µM is 75.1%.
Turning to `Cc1ccc(CN2C(=O)c3ccc(C(=O)NCCCN4CCOCC4)cc3C2=O)cc1` [Compound 110, 4-(3-{[2-(4-methyl-benzyl)-1,3-dioxo-2,3-dihydro-1H-isoindol-5-carbonyl]-amino}-propyl)-4-morpholinium chloride], the inhibition at 10 µM amounted to 9.1%.
Consider `Cc1cccc(N2C(=O)c3ccc(C(=O)NCCN4CCCC4)cc3C2=O)c1` [Compound 35, 1-{2-[(1,3-dioxo-2-m-tolyl-2,3-dihydro-1H-isoindol-5-carbonyl)-amino]-ethyl}-pyrrolidinium chloride], for which the inhibition at 10 µM is 4.7%.
For `Cc1ccccc1N1C(=O)c2ccc(C(=O)NCCN3CCCCC3)cc2C1=O` [Compound 28, 1-{2-[(1,3-dioxo-2-o-tolyl-2,3-dihydro-1H-isoindol-5-carbonyl)-amino]-ethyl}-piperidinium chloride], the inhibition at 100 µM stood at 45.6%.
Still for that read-out and setting: the figure for `O=C(NCCCN1CCCC1)c1ccc2c(c1)C(=O)N(c1ccc(F)cc1)C2=O` [Compound 22, 1-(3-{[2-(4-fluoro-phenyl)-1,3-dioxo-2,3-dihydro-1H-isoindol-5-carbonyl]-amino}-propyl)-pyrrolidinium chloride] is 19.3%; for `COc1cccc(CN2C(=O)c3ccc(C(=O)NCCN4CCCCC4)cc3C2=O)c1` [Compound 117, 1-(2-{[2-(3-methoxy-benzyl)-1,3-dioxo-2,3-dihydro-1H-isoindol-5-carbonyl]-amino}-ethyl)-piperidinium chloride] it is 69.8%.
`O=C(NCCN1CCCCC1)c1ccc2c(c1)C(=O)N(Cc1ccccc1Cl)C2=O` [Compound 75, 1-(2-{[2-(2-chloro-benzyl)-1,3-dioxo-2,3-dihydro-1H-isoindol-5-carbonyl]-amino}-ethyl)-piperidinium chloride]: the inhibition at 10 µM was found to be 33.6%.
Regarding `Cc1ccc(N2C(=O)c3ccc(C(=O)NCCN4CCCCC4)cc3C2=O)cc1` [Compound 39, 1-{2-[(1,3-dioxo-2-p-tolyl-2,3-dihydro-1H-isoindol-5-carbonyl)-amino]-ethyl}-piperidinium chloride], the inhibition at 100 µM was found to be 39.4%.
For `O=C(NCCN1CCCCC1)c1ccc2c(c1)C(=O)N(c1ccccc1F)C2=O` [Compound 7, 1-(2-{[2-(2-fluoro-phenyl)-1,3-dioxo-2,3-dihydro-1H-isoindol-5-carbonyl]-amino}-ethyl)-piperidinium chloride], the inhibition at 100 µM was 40.6%.
In the case of `COc1cccc(CN2C(=O)c3ccc(C(=O)NCCN4CCOCC4)cc3C2=O)c1` [Compound 121, 4-(2-{[2-(3-methoxy-benzyl)-1,3-dioxo-2,3-dihydro-1H-isoindol-5-carbonyl]-amino}-ethyl)-4-morpholinium chloride], the inhibition at 100 µM came to 57.6%.
The same measure, in the same setting: in the case of `O=C(NCCN1CCCCC1)c1ccc2c(c1)C(=O)N(Cc1ccccc1)C2=O` [Compound 49, 1-{2-[(2-benzyl-1,3-dioxo-2,3-dihydro-1H-isoindol-5-carbonyl)-amino]-ethyl}-piperidinium chloride] it was 72.4%; in that of `O=C(NCCCN1CCOCC1)c1ccc2c(c1)C(=O)N(c1cccc(F)c1)C2=O` [Compound 18, 4-(3-{[2-(3-fluoro-phenyl)-1,3-dioxo-2,3-dihydro-1H-isoindol-5-carbonyl]-amino}-propyl)-4-morpholinium chloride], 22.7%.
For the molecule `Cc1cccc(CN2C(=O)c3ccc(C(=O)NCCCN4CCCC4)cc3C2=O)c1` [Compound 102, 1-(3-{[2-(3-methyl-benzyl)-1,3-dioxo-2,3-dihydro-1H-isoindol-5-carbonyl]-amino}-propyl)-pyrrolidinium chloride], the inhibition at 10 µM is 24.8%.
Turning to `Cc1ccc(N2C(=O)c3ccc(C(=O)NCCN4CCCC4)cc3C2=O)cc1` [Compound 41, 1-{2-[(1,3-dioxo-2-p-tolyl-2,3-dihydro-1H-isoindol-5-carbonyl)-amino]-ethyl}-pyrrolidinium chloride], the inhibition at 10 µM is 2%.
On to `N#Cc1ccc(CN2C(=O)c3ccc(C(=O)NCCN4CCCC4)cc3C2=O)cc1` [Compound 131, 1-(2-{[2-(4-cyano-benzyl)-1,3-dioxo-2,3-dihydro-1H-isoindol-5-carbonyl]-amino}-ethyl)-pyrrolidinium chloride], for which the inhibition at 10 µM was 0.6%.
As for `O=C(NCCN1CCCCC1)c1ccc2c(c1)C(=O)N(c1ccccc1Cl)C2=O` [Compound 25, 1-(2-{[2-(2-chloro-phenyl)-1,3-dioxo-2,3-dihydro-1H-isoindol-5-carbonyl]-amino}-ethyl)-piperidinium chloride], the inhibition at 100 µM was found to be 38.2%.
As for `O=C(NCCN1CCCC1)c1ccc2c(c1)C(=O)N(Cc1cccc(Cl)c1)C2=O` [Compound 83, 1-(2-{[2-(3-chloro-benzyl)-1,3-dioxo-2,3-dihydro-1H-isoindol-5-carbonyl]-amino}-ethyl)-pyrrolidinium chloride], the inhibition at 10 µM amounted to 28.9%.
As for `Cc1cccc(CN2C(=O)c3ccc(C(=O)NCCN4CCOCC4)cc3C2=O)c1` [Compound 103, 4-(2-{[2-(3-methyl-benzyl)-1,3-dioxo-2,3-dihydro-1H-isoindol-5-carbonyl]-amino}-ethyl)-4-morpholinium chloride], the inhibition at 10 µM was determined as 21.1%.
As for `CC1CCCCN1CCCNC(=O)c1ccc2c(c1)C(=O)N(c1ccccc1F)C2=O` (centres unmarked) [Compound 8, 1-(3-{[2-(2-fluoro-phenyl)-1,3-dioxo-2,3-dihydro-1H-isoindol-5-carbonyl]-amino}-propyl)-2-methyl-piperidinium chloride], the inhibition at 100 µM amounted to 36.8%.
Turning to `Cc1ccccc1N1C(=O)c2ccc(C(=O)NCCN3CCCC3)cc2C1=O` [Compound 30, 1-{2-[(1,3-dioxo-2-o-tolyl-2,3-dihydro-1H-isoindol-5-carbonyl)-amino]-ethyl}-pyrrolidinium chloride], the inhibition at 100 µM came to 33.6%.
With `CC1CCCCN1CCCNC(=O)c1ccc2c(c1)C(=O)N(Cc1ccc(C#N)cc1)C2=O` (centres unmarked) [Compound 130, 1-(3-{[2-(4-cyano-benzyl)-1,3-dioxo-2,3-dihydro-1H-isoindol-5-carbonyl]-amino}-propyl)-2-methyl-piperidinium chloride], the inhibition at 10 µM stood at 9.1%.
As to `O=C(NCCCN1CCCC1)c1ccc2c(c1)C(=O)N(Cc1ccccc1)C2=O` [Compound 52, 1-{3-[(2-benzyl-1,3-dioxo-2,3-dihydro-1H-isoindol-5-carbonyl)-amino]-propyl}-pyrrolidinium chloride], the inhibition at 100 µM is 45.8%.
With `CC1CCCCN1CCCNC(=O)c1ccc2c(c1)C(=O)N(c1ccccc1)C2=O` (centres unmarked) [Compound 2, 1-{3-[(1,3-dioxo-2-phenyl-2,3-dihydro-1H-isoindol-5-carbonyl)-amino]-propyl}-2-methyl-piperidinium chloride], the inhibition at 100 µM was 33.8%.
On the same count and under the same terms, in the case of `COc1cccc(CN2C(=O)c3ccc(C(=O)NCCCN4CCCC4)cc3C2=O)c1` [Compound 120, 1-(3-{[2-(3-methoxy-benzyl)-1,3-dioxo-2,3-dihydro-1H-isoindol-5-carbonyl]-amino}-propyl)-pyrrolidinium chloride] it was 63.7%; in that of `COc1ccc(N2C(=O)c3ccc(C(=O)NCCN4CCCCC4)cc3C2=O)cc1` [Compound 48, 1-(2-{[2-(4-methoxy-phenyl)-1,3-dioxo-2,3-dihydro-1H-isoindol-5-carbonyl]-amino}-ethyl)-piperidinium chloride], 31.4%.

The record behind these values is patent publication US7319098B2, “1,3-dioxoisoindole derivatives having selective antagonism of T-type calcium channel” (Korea Institute of Science and Technology, priority 2006, dated 2008).
